Patent US20230203058A1, “MACROCYCLIC DIAMINE DERIVATIVES AS ENT INHIBITORS FOR THE TREATMENT OF CANCERS, AND COMBINATION THEREOF WITH ADENOSINE RECEPTOR ANTAGONISTS” (ITEOS BELGIUM SA, priority 2020, published 2023)
pIC50: −log10 of the molar value. Where two headings read alike, the source gives them in different places.

Experiments:
[1] = tested on: stimulated primary human T cells; experiment: T cell proliferation assay (rescue of proliferation in presence of ATP, CFSE dilution); assay type: cell-based; settings: 100 uM ATP
Procedure: The aim of this study was to determine the potency of equilibrative nucleoside transporter 1 (ENT1) inhibitors to rescue proliferation by stimulated primary human T cells incubated in the presence of 100 uM Adenosine triphosphate (ATP), in baseline conditions (condition A) or in the presence of various proteins known to bind small molecules (condition B). Condition A: X-VIVO15 Condition B: X-VIVO15, 2% Human Serum Albumine (HSA) and 0,1% α-1-Acid Glycoprotein (AAG)
Cryopreserved purified human CD3+ T cells were thawed and washed twice with RPMI1640 medium, UltraGlutamine containing 10% hiFBS.
Cells were suspended in PBS containing 10% hiFBS. Cells were stained with CFSE by adding 2 µM solution in PBS, to get a final 1 µM CFSE solution. Cells were incubated while rotating for 5 minutes. Reaction was stopped by adding PBS with 10% FBS and cells were centrifuged for 5 minutes at 1500 rpm.
Cells were resuspended at 1.6 ×10^6 cells/mL, either in X-VIVO15 medium or in 4% Human Serum Albumin and 0,2% α-1-Acid Glycoprotein. 50 µL of cell suspension (8×10^4 T cells) was added to wells of sterile round-bottom 96-well plates. Cells were activated by adding 50 µL of anti-CD3 anti-CD28 coated microbeads, suspended either in XVIVO-15 medium or in 4% HSA and 0,2% α-1-Acid Glycoprotein, at a ratio of one microbead per two cells. Serial dilutions of the ENT1 inhibitors were prepared in X-VIVO15 from 10 mM stock solutions in DMSO, and 50 µL was added to the wells. ATP powder was diluted in X-VIVO15, and 50 µL of this compound was added to the wells to reach a final assay concentration of 100 µM. Final volume of 200 µL. The experiments were also performed in 384 well plates - all volumes reduced by a factor of 4 (12,5 µL) with a final volume of 50 µL. Experiments were performed in duplicate. The cells were placed in a 37° C. humidified tissue culture incubator with 5% CO2 for 72 hours for 96 well plates, 96 hours for 384 well plates. After 72 or 96 hours, proliferation was measured determined by CFSE dilution via flow cytometry.

human ENT1 = molecular target: T1, human ENT1 (Homo sapiens, UniProt Q99808); experiment: ENT1 binding assay (competition with Sahenta-DY647 on JAR cells); design: JAR cells expressing ENT1 were bought from ATCC® (HTB-144TM); host or cells: JAR cells (human choriocarcinoma line; whole cells); settings: competition with Sahenta-DY647 100 nM, 4° C.
T1 sequence (Q99808 1-456): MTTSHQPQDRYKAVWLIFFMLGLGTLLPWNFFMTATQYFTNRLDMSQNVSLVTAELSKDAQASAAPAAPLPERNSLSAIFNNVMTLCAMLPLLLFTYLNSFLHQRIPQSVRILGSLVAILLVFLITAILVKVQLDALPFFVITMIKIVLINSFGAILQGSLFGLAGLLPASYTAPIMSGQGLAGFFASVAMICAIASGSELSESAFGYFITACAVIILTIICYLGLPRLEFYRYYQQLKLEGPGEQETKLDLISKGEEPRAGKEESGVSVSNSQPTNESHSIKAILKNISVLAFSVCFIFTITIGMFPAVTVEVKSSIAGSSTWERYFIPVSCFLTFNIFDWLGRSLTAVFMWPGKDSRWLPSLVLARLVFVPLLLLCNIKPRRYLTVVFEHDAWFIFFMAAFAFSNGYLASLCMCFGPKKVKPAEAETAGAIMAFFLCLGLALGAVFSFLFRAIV
Summary of the method: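 Competition binding on intact JAR cells (50000 per well) in HBSS with 10 mM Hepes and 0.1% BSA. Cells pre-incubated with compound 30 min at 4 °C, then Sahenta-DY647 added at its IC90 (100 nM) for another 30 min at 4 °C; after washing, fluorescence read at Ex 630/Em 670 nm.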

hERG ion channel = molecular target: T2, hERG ion channel (Homo sapiens, UniProt Q12809); experiment: hERG ion channel inhibition (Patchliner automated patch-clamp, CHO cells); assay type: cell-based; settings: whole-cell, room temperature, 6-point curve up to 100 µM
T2 construct: Chinese Hamster Ovary cell lines stably expressing the full-length ion channel; expressed in transfected cells
Procedure: The compounds were tested for inhibition of hERG ion channel. 6-Point concentration-response curves were generated on the Patchliner automated patch-clamp using serial dilutions from a maximum test concentration of 100 µM.
Compounds were solubilised to 33 mM in DMSO before dilution in HBPS to 100 µM. 6-Point concentration-response curves were generated using serial dilutions from the top test concentration. Electrophysiological recordings were made from a Chinese Hamster Ovary cell lines stably expressing the full-length ion channel. Single cell ionic currents were measured in whole-cell configuration at room temperature (21-23° C.) using a Patchliner (Nanion Technologies). The internal solution for hERG contained (mM): 120 KF, 20 KCl, 10 EGTA, 10 HEPES and was buffered to pH 7.3. The external solution (HEPES-buffered saline, HBPS) contained (mM): 138 NaCl, 4.5 KCl, 1.8 CaC12, 1.0 MgC12, 10 HEPES, 10 glucose, buffered to pH7.4. Cells were clamped at a holding potential of -80 mV before a depolarising step appropriate for the hERG channel. Currents were measured from the step and referenced to the holding current. Compounds were incubated for 90 seconds. Concentration-response curves were generated by cumulative addition of compound with concentrations low to high. In all cases, steady-state inhibition was achieved before the next concentration of compound was added.
IC50 values were obtained from a 4-parameter logistic fit of the concentration-response data: […]

human T cells = experiment: T cell stimulation assay (Example III, FIG. 1); assay type: cell-based; settings: ATP 100 µM
Procedure: FIG. 1A depicts a graph of log concentration (M) versus percent proliferation. Purified human T cells were activated with anti-CD3/CD28 dynabeads in the presence of ATP (100 µM) as a source of adenosine for 96 h and then proliferation was assessed by CFSE dilution.
FIG. 1B depicts a graph of log concentration of ENT1 inhibitor (M) versus percent proliferation. Experiment performed as in FIG. A with the addition of HSA and AAG to the culture medium (final concentration 2 and 0.1%, respectively).
Peripheral blood mononuclear cells (PBMCs) were first isolated via centrifugation of fresh whole blood over Lymphoprep using SepMate-50 tubes (both from […] Technologies) according to the manufacturer’s instructions. Human T cells were then isolated from the PBMCs using the EasySep Human T cell Isolation Kit ([…] Technologies) according to the manufacturer’s instructions and the cells were cryopreserved in FBS with 10% DMSO until required.
Cryopreserved human T cells were thawed on the day of the experiment and resuspended in PBS with 10% FBS at approximately 1 × 10^7 cells/ml. This cell suspension was diluted 1:1 with 2 µM CFSE solution (ThermoFisher Scientific) in PBS and incubated for 5 minutes at room temperature. The labelling reaction was quenched by further addition of PBS with 10% FBS, and then the cells were washed into X-VIVO15 medium (Lonza) for use in the T cell assay.
CFSE-labelled T cells were plated at 2 × 10^4 cells per well in 384 well plates in the presence of ATP (100 µM, Sigma-Aldrich) as a source of adenosine. Activation was driven by the addition of Dynabeads Human T-Activator CD3/CD28 (ThermoFisher Scientific) at a ratio of 0,5 beads per T cell. ENT1 inhibitor molecules including the reference molecule dilazep (Tocris Bioscience) were added, the volume of the wells was adjusted to 50 µl with X-VIVO15 medium and the plates were cultured in a humidified incubator for 96 h at 37° C. with 5% CO2. In some experiments the culture was supplemented with human serum albumin (HSA) and alpha-1-acid glycoprotein (AAG, both Sigma-Aldrich) at final concentrations of 2 and 0,1%, respectively.
Analysis of proliferation via CSFE dilution was performed by flow cytometry using a BD LSR Fortessa with data analysis on FlowJo (BD Biosciences).

[2] = Condition A: X-VIVO15, read-out: T Cell proliferation (Condition A) IC50
[3] = Condition B: X-VIVO15, 2% HSA and 0,1% AAG, read-out: (2) T Cell proliferation (Condition B) IC50

T2 sequence (Q12809 whole entry): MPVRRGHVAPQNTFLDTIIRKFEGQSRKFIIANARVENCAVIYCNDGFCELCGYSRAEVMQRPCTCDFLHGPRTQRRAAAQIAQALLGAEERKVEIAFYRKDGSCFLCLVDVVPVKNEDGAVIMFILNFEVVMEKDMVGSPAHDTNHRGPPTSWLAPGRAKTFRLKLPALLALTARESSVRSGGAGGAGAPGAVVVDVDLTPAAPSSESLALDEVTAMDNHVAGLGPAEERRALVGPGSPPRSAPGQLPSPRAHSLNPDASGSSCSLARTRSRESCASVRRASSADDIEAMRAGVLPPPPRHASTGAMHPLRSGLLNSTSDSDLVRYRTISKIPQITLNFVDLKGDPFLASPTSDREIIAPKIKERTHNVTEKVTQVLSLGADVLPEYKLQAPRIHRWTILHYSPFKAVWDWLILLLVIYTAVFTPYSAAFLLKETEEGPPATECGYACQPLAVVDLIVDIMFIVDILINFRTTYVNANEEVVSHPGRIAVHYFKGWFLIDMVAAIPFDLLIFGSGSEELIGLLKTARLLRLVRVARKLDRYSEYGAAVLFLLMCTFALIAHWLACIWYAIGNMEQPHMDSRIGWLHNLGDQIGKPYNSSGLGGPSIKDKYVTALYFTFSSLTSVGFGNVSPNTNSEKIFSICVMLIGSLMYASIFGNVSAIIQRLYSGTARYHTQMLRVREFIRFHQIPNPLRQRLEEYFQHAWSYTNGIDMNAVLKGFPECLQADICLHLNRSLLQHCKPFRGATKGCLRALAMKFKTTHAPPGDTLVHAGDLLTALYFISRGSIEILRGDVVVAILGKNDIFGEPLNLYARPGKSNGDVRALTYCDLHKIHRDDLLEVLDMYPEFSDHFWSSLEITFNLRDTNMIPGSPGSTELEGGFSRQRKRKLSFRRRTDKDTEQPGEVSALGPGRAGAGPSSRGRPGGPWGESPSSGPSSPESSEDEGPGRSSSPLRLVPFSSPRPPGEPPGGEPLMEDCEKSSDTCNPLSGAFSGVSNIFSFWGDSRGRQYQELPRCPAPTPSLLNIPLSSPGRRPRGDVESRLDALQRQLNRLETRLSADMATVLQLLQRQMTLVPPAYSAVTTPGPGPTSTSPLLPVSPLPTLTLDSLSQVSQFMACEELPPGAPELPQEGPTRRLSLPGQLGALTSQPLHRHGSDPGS

SMILES	pIC50 (human ENT1)	pIC50 [1, 2]	pIC50 [1, 3]	pIC50 (hERG ion channel)	pIC50 (human T cells; anti-CD3/CD28 dynabeads, 96 h (FIG. 1A), read-out: IC50 of restoration of T cell proliferation)	pIC50 (human T cells; with HSA 2% and AAG 0,1% (FIG. 1B), read-out: IC50 of restoration of T cell proliferation under high protein binding conditions)
COc1cc2cc(c1OC)CCC[C@@H](OC(=O)c1cc(OC)c(OC)c(OC)c1)CCN1CCCN(CCCNC2=O)CC1 [Compound 14, (11R)-74,75-dimethoxy-6-oxo-5-aza-1(1,4)-diazepana-7(1,3)-benzenacyclotridecaphane-11-yl 3,4,5-trimethoxybenzoate]	7.70 to 9.00	7.70 to 9.00	< 6.30	–	–	–
COc1cc2cc(c1OC)OCCCC(OC(=O)CCn1cccn1)CCN1CCCN(CCCOC2=O)CC1 (stereo not shown) [Compound 94, 74,75-dimethoxy-6-oxo-5,8-dioxa-1 (1,4)-diazepana-7(1,3)-benzenacyclotetradecaphane-12-yl 3-(1H-pyrazol-1-yl)propanoate]	7.70 to 9.00	7.70 to 9.00	< 6.30	–	–	–
COc1cc2cc(c1OC)OCCCC(OC(=O)CCC(=O)N(C)C)CCN1CCCN(CCCOC2=O)CC1 (stereo not shown) [Compound 99, 74,75-dimethoxy-6-oxo-5,8-dioxa-1(1,4)-diazepana-7(1,3)-benzenacyclotetradecaphane-12-yl 4-(dimethylamino)-4-oxobutanoate]	7.70 to 9.00	> 9.00	6.30 to 7.70	–	–	–
COc1cc(C(=O)O[C@@H]2CCCOc3cccc(c3)C(=O)OCCCN3CCCN(CC2)CC3)cc(OC)c1OC (stereo in doubt) [Compound 18, (12R)-6-oxo-5,8-dioxa-1(1,4)-diazepana-7(1,3)-benzenacyclotetradecaphane-12-yl 3,4,5-trimethoxybenzoate]	7.70 to 9.00	7.70 to 9.00	< 6.30	–	–	–
COc1cc(C(=O)OCCCN2CCCN(CCCOC(=O)c3cc(OC)c(OC)c(OC)c3)CC2)cc(OC)c1OC [Dilazep, dilazep, reference compound]	–	7.70 to 9.00	6.30 to 7.70	6.05	7.15	6.47
COc1cc2cc(c1OC)OCCCC(OC(=O)C1CC1)CCN1CCCN(CCCOC2=O)CC1 (stereo not shown) [Compound 60, 74,75-dimethoxy-6-oxo-5,8-dioxa-1(1,4)-diazepana-7(1,3)-benzenacyclotetradecaphane-12-yl cyclopropanecarboxylate]	7.70 to 9.00	7.70 to 9.00	< 6.30	–	–	–
COc1cc2cc(c1OC)OCCCC(OC(=O)c1ccc(OC(C)C)cc1)CCN1CCCN(CCCOC2=O)CC1 (stereo not shown) [Compound 43, 74,75-dimethoxy-6-oxo-5,8-dioxa-1(1,4)-diazepana-7(1,3)-benzenacyclotetradecaphane-12-yl 4-isopropoxybenzoate]	6.30 to 7.70	> 9.00	7.70 to 9.00	–	–	–

Further lines, with some results ahead:

pIC50 (human ENT1)	SMILES	pIC50 [1, 2]	pIC50 [1, 3]	pIC50 (hERG ion channel)	pIC50 (human T cells; anti-CD3/CD28 dynabeads, 96 h (FIG. 1A), read-out: IC50 of restoration of T cell proliferation)	pIC50 (human T cells; with HSA 2% and AAG 0,1% (FIG. 1B), read-out: IC50 of restoration of T cell proliferation under high protein binding conditions)
7.70 to 9.00	COc1cc(C(=O)O[C@@H]2CCCOc3cc(cc(OC)c3OC)C(=O)OCCCN3CCCN(CC2)CC3)cc(OC)c1OC [Compound 1, (12R)-74,75-dimethoxy-6-oxo-5,8-dioxa-1(1,4)-diazepana-7(1,3)-benzenacyclotetradecaphane-12-yl 3,4,5-trimethoxybenzoate]	> 9.00	> 9.00	–	–	–
7.70 to 9.00	COc1cc2cc(c1OC)OCCCC(OC(=O)c1ccccn1)CCN1CCCN(CCCOC2=O)CC1 (stereo not shown) [Compound 52, 74,75-dimethoxy-6-oxo-5,8-dioxa-1(1,4)-diazepana-7(1,3)-benzenacyclotetradecaphane-12-yl picolinate]	–	–	5.57	–	–
< 6.30	COc1cc2cc(c1OC)OCCC[C@@H](O)CCN1CCCN(CCCOC2=O)CC1 [Compound 39, (12R)-12-hydroxy-74,75-dimethoxy-5,8-dioxa-1(1,4)-diazepana-7(1,3)-benzenacyclotetradecaphan-6-one]	6.30 to 7.70	< 6.30	–	–	–
7.70 to 9.00	COc1cc2cc(c1OC)OCCCC(OC(C)=O)CCN1CCCN(CCCOC2=O)CC1 (stereo not shown) [Compound 59, 74,75-dimethoxy-6-oxo-5,8-dioxa-1(1,4)-diazepana-7(1,3)-benzenacyclotetradecaphane-12-yl acetate]	7.70 to 9.00	< 6.30	–	–	–
